Reference: US20090048269A1 (AstraZeneca AB, priority 2007, published 2009)

Molecular target: T1, human ALK5 (Homo sapiens, UniProt P36897)
T1 sequence (P36897 162-503): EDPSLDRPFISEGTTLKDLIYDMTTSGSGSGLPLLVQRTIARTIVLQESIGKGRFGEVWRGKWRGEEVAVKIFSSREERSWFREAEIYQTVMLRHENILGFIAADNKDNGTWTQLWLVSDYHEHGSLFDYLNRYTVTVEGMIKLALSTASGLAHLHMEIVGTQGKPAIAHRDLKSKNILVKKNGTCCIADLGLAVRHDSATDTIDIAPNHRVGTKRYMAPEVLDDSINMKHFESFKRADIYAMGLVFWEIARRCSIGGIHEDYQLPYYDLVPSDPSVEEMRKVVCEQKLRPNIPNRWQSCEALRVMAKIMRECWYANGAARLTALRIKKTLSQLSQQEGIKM
Experiment: ALK5 Enzyme Assay 2 (fluorescence polarisation probe displacement)
Format: binding
Parameters: 6His tagged human ALK5 (residues162-503) was grown and purified from insect cells; 6His; made in house; host or cells: insect cells
Conditions: read-out: EAA2: activity (μM) using Enzyme Assay 2
How it was run: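 Recombinant ALK5 (3 μg/mL) incubated with test compound in 50 mM HEPES pH7.4, 10 mM MgCl2, 1 mM DTT, 0.01% CHAPS. Displacement of a fluorescent quinazoline-based ALK5 probe (50 nM final) in presence of 1 μM ATP read by fluorescence polarisation.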

Row | Compound | IC50 [µM]
1 | Cc1ccc(Oc2ccnc(Nc3ccc(OCC(O)CNC(C)C)cc3)c2)c(C)n1 (stereo not shown) [Example 129, 1-(4-{[4-(2,6-Dimethylpyridin-3-yl)oxypyridin-2-yl]amino}-phenoxy)-3-(propan-2-ylamino)propan-2-ol] | 0.103
2 | C#CC(C)(C)NC(=O)c1cccc(Nc2cc(Oc3cc(C)c(C)nc3-c3ccccn3)ccn2)c1 [Example 103, 3-{[4-(5,6-Dimethyl-2-pyridin-2-ylpyridin-3-yl)oxypyridin-2-yl]-amino}-N-(2-methylbut-3-yn-2-yl)benzamide] | 0.0375
3 | Cc1ccc(Oc2ccnc(Nc3ccc(S(=O)(=O)N4CCCCC4)cc3)c2)c(C)n1 [Example 115, 4-(2,6-Dimethylpyridin-3-yl)oxy-N-(4-piperidin-1-ylsulfonyl-phenyl)pyridin-2-amine] | 5.41
4 | COc1ccc(-c2nc(C)ccc2Oc2ccnc(Nc3cc(OC)c(OC)c(OC)c3)c2)cn1 [Example 169, 4-(6′-Methoxy-6-methyl-2,3′-bipyridin-3-yloxy)-N-(3,4,5-trimethoxyphenyl)pyridin-2-amine] | 0.0751
5 | CCCc1nc(C)ccc1Oc1ccnc(Nc2cc(OC)c(OC)c(OC)c2)c1 [Example 166, 4-(6-Methyl-2-propylpyridin-3-yloxy)-N-(3,4,5-trimethoxy-phenyl)pyridin-2-amine] | 0.597
6 | Cc1cc(Oc2ccnc(Nc3cccc(C(=O)NC4CC4)c3)c2)c(-c2ccccn2)nc1C [Example 72, N-Cyclopropyl-3-{[4-(5,6-dimethyl-2-pyridin-2-ylpyridin-3-yl)-oxypyridin-2-yl]amino}benzamide] | 0.0108
7 | CCCCCNS(=O)(=O)c1ccc(Nc2cc(Oc3ccc(C)nc3C)ccn2)cc1 [Example 114, 4-{[4-(2,6-Dimethylpyridin-3-yl)oxypyridin-2-yl]amino}-N-pentylbenzenesulfonamide] | 3.01
8 | Cc1ccc(Oc2ccnc(Nc3ccccc3)c2)c(C(=O)NCC2CC2)n1 [Example 93, 3-(2-Anilinopyridin-4-yl)oxy-N-(cyclopropylmethyl)-6-methyl-pyridine-2-carboxamide] | 0.154
9 | Cc1cc(Oc2ccnc(Nc3cccc(C(=O)N4CCC4)c3)c2)c(-c2ccccn2)nc1C [Example 98, Azetidin-1-yl-(3-{[4-(5,6-dimethyl-2-pyridin-2-ylpyridin-3-yl)-oxypyridin-2-yl]amino}phenyl)methanone] | 0.0513
10 | Cc1ccc(Oc2ccnc(Nc3ccc(S(=O)(=O)NCCN4CCCCC4)cc3)c2)c(C)n1 [Example 134, 4-{[4-(2,6-Dimethylpyridin-3-yl)oxypyridin-2-yl]amino}-N-(2-piperidin-1-ylethyl)benzenesulfonamide] | 0.199
11 | Cc1ccc(Oc2ccnc(Nc3ccc(CO)cc3)c2)c(C)n1 [Example 154, (4-{[4-(2,6-Dimethylpyridin-3-yl)oxypyridin-2-yl]amino}phenyl)-methanol] | 0.0197
12 | Cc1ccc(Oc2ccnc(Nc3cccc(CN4CCN(C(=O)OC(C)(C)C)CC4)c3)c2)c(C)n1 [Example 207, tert-Butyl 4-[(3-{[4-(2,6-dimethylpyridin-3-yl)oxypyridin-2-yl]-amino}phenyl)methyl]piperazine-1-carboxylate] | 0.0384
13 | Cc1ccc(Oc2ccnc(Nc3ccccn3)c2)c(-c2ccccn2)n1 [Example 145, 4-(6-Methyl-2-pyridin-2-ylpyridin-3-yl)oxy-N-pyridin-2-yl-pyridin-2-amine] | 0.00825
14 | Cc1ccc(Oc2ccnc(Nc3ccccc3)c2)c(C(=O)NCc2ccc[nH]2)n1 [Example 94, 3-(2-Anilinopyridin-4-yl)oxy-6-methyl-N-(1H-pyrrol-2-ylmethyl)-pyridine-2-carboxamide] | 0.119
15 | 3-{[4-(2,6-Dimethylpyridin-3-yl)oxypyridin-2-yl]amino}-N-(1-methylpiperidin-4-yl)benzamide [Example 70] | 0.0323
16 | Cc1ccc(Oc2ccnc(Nc3ccc(CO)cc3)c2)c(-c2ccco2)n1 [Example 163, [4-({4-[2-(Furan-2-yl)-6-methylpyridin-3-yl]oxypyridin-2-yl}-amino)phenyl]methanol] | 0.00528
17 | Cc1ccc(Oc2ccnc(Nc3cccc(C(=O)O)c3)c2)c(C)n1 [Example 210, Sodium 3-{[4-(2,6-dimethylpyridin-3-yl)oxypyridin-2-yl]amino}benzoate] | 0.0392
18 | Cc1ccc(Oc2ccnc(Nc3ccc(CO)cc3)c2)c(-c2ccccn2)n1 [Example 147, (4-{[4-(6-Methyl-2-pyridin-2-ylpyridin-3-yl)oxypyridin-2-yl]-amino}phenyl)methanol] | 0.00921
19 | Cc1ccc(Oc2ccnc(Nc3cccc(C(=O)N4CC[C@H](S(C)(=O)=O)C4)c3)c2)c(C)n1 (single isomer, unassigned) [Example 138] | 0.0143

Row | Compound | IC50 [µM]
20 | Cc1ccc(Oc2ccnc(Nc3cccc(CN4CCN(CCN5CCNC5=O)CC4)c3)c2)c(C)n1 [Example 192, 1-(2-{4-[(3-{[4-(2,6-Dimethylpyridin-3-yl)oxypyridin-2-yl]-amino}phenyl)methyl]piperazin-1-yl}ethyl)imidazolidin-2-one] | 0.0155
21 | Cc1ccc(Oc2ccnc(Nc3cccc(C(=O)N4CC[C@@H](S(C)(=O)=O)C4)c3)c2)c(C)n1 (single isomer, unassigned) [Example 139] | 0.0495
22 | Cc1ccc(Oc2ccnc(Nc3ccc(C#N)cc3)c2)c(C)n1 [Example 89, 4-{[4-(2,6-Dimethylpyridin-3-yl)oxypyridin-2-yl]amino}-benzonitrile] | 0.346
23 | Cc1ccc(Oc2ccnc(Nc3cccc(CO)c3)c2)c(C)n1 [Example 174, (3-{[4-(2,6-Dimethylpyridin-3-yl)oxypyridin-2-yl]amino}phenyl)-methanol] | 0.0113
24 | Cc1ccc(Oc2ccnc(Nc3cccc(CN4CCN(S(C)(=O)=O)CC4)c3)c2)c(C)n1 [Example 175, 4-(2,6-Dimethylpyridin-3-yl)oxy-N-{3-[(4-methylsulfonyl-piperazin-1-yl)methyl]phenyl}pyridin-2-amine] | 0.00611
25 | COc1ccc(Nc2cc(Oc3ccc(C)nc3C)ccn2)cc1 [Example 90, 4-(2,6-Dimethylpyridin-3-yl)oxy-N-(4-methoxyphenyl)pyridin-2-amine] | 0.135
26 | CCCCCNC(=O)N1CCN(Cc2cccc(Nc3cc(Oc4ccc(C)nc4C)ccn3)c2)CC1 [Example 181, 4-[(3-{[4-(2,6-Dimethylpyridin-3-yl)oxypyridin-2-yl]amino}-phenyl)methyl]-N-pentylpiperazine-1-carboxamide] | 0.0159
27 | COc1cc(Nc2cc(Oc3ccc(C)nc3N3CCCC3)ccn2)cc(OC)c1OC [Example 164, 4-(6-Methyl-2-(pyrrolidin-1-yl)pyridin-3-yloxy)-N-(3,4,5-trimethoxyphenyl)pyridin-2-amine] | 0.0275
28 | Cc1ccc(Oc2ccnc(Nc3cccc(NS(C)(=O)=O)c3)c2)c(C)n1 [Example 128, N-(3-{[4-(2,6-Dimethylpyridin-3-yl)oxypyridin-2-yl]amino}-phenyl)methanesulfonamide] | 0.0321
29 | Cc1ccc(Oc2ccnc(Nc3ccc(C(=O)NCCN4CCCCC4)cc3)c2)c(C)n1 [Example 217, 4-{[4-(2,6-Dimethylpyridin-3-yl)oxypyridin-2-yl]amino}-N-(2-piperidin-1-ylethyl)benzamide] | 0.0121
30 | Cc1ccc(Oc2ccnc(Nc3cccc(C(=O)NCc4ncc[nH]4)c3)c2)c(C)n1 [Example 63, 3-{[4-(2,6-Dimethylpyridin-3-yl)oxypyridin-2-yl]amino}-N-(1H-imidazol-2-ylmethyl)benzamide] | 0.00823
31 | COc1ccc(-c2nc(C)ccc2Oc2ccnc(Nc3cc(OC)c(OC)c(OC)c3)c2)cc1 [Example 168, 4-[2-(4-Methoxyphenyl)-6-methylpyridin-3-yl-oxy]-N-(3,4,5-trimethoxyphenyl)pyridin-2-amine] | 0.0228
32 | CC(=O)N(C)c1ccc(Nc2cc(Oc3ccc(C)nc3C)ccn2)cc1 [Example 122, N-(4-{[4-(2,6-Dimethylpyridin-3-yl)oxypyridin-2-yl]amino}-phenyl)-N-methylacetamide] | 0.215
33 | Cc1ccc(Oc2ccnc(Nc3cccc(CN4CCN(S(=O)(=O)c5cccnc5-n5cncn5)CC4)c3)c2)c(C)n1 [Example 182, 4-(2,6-Dimethylpyridin-3-yl)oxy-N-[3-({4-[2-(1,2,4-triazol-1-yl)-pyridin-3-yl]sulfonylpiperazin-1-yl}methyl)phenyl]pyridin-2-amine] | 0.0183
34 | Cc1ccc(Oc2ccnc(Nc3ccc(S(N)(=O)=O)cc3)c2)c(-c2ccco2)n1 [Example 160, 4-({4-[2-(Furan-2-yl)-6-methylpyridin-3-yl]oxypyridin-2-yl}-amino)benzenesulfonamide] | 0.0128
35 | Cc1ccc(Oc2ccnc(Nc3cccc(C(=O)NC4CC4)c3)c2)c(C)n1 [Example 194A, N-Cyclopropyl-3-{[4-(2,6-dimethylpyridin-3-yl)oxypyridin-2-yl]-amino}benzamide] | 0.0457
36 | Cc1cc(Oc2ccnc(Nc3cc(NS(C)(=O)=O)cc(C(N)=O)c3)c2)c(-c2ccccn2)nc1C [Example 84, 3-{[4-(5,6-Dimethyl-2-pyridin-2-ylpyridin-3-yl)oxypyridin-2-yl]-amino}-5-methanesulfonamidobenzamide] | 0.016
37 | Cc1ccc(Oc2ccnc(Nc3ccc(CC#N)cc3)c2)c(-c2ccccn2)n1 [Example 144, 2-(4-{[4-(6-Methyl-2-pyridin-2-ylpyridin-3-yl)oxypyridin-2-yl]-amino}phenyl)acetonitrile] | 0.0276
